US11839214B2, “Fungicidal mixture comprising substituted pyridines” (BASF SE, priority 2017, dated 2023)

Columns and labels:
Format in all cases: cell-based
Septoria tritici = assay: Activity against leaf blotch on wheat caused by Septoria tritici (microtiterplate test); conditions: single active; for inhibition of growth at 1 ppm / inhibition of growth at 4 ppm / inhibition of growth at 16 ppm / inhibition of growth at 0.063 ppm / inhibition of growth at 0.25 ppm: Zymoseptoria tritici, 168 h, read-out: Observed efficacy
Pyricularia oryzae = assay: microbe, parasite or virus in culture
Sclerotinia sclerotiorum = assay: Activity against Sclerotinia sclerotiorum in the microtiterplate test; conditions: single active compound
Botrytis cinerea = assay: Activity against the grey mold Botrytis cinerea in the microtiterplate test; conditions: single active compound; for inhibition of growth at 4 ppm / inhibition of growth at 16 ppm / inhibition of growth at 0.25 ppm / inhibition of growth at 1 ppm: Botrytis cinerea, 168 h, read-out: Observed efficacy
[1] = Pyricularia oryzae, 168 h, read-out: Observed efficacy
[2] = Sclerotinia sclerotiorum, 168 h, 4 ppm, read-out: Observed efficacy
[3] = Sclerotinia sclerotiorum, 168 h, read-out: Observed efficacy

| SMILES | inhibition of growth at 1 ppm (Septoria tritici; 1 ppm) | inhibition of growth at 4 ppm (Pyricularia oryzae; [1]) | inhibition of growth at 4 ppm (Sclerotinia sclerotiorum; [2]) | inhibition of growth at 4 ppm (Botrytis cinerea) | inhibition of growth at 16 ppm (Botrytis cinerea) | inhibition of growth at 4 ppm (Septoria tritici) | inhibition of growth at 16 ppm (Septoria tritici) | inhibition of growth at 0.25 ppm (Pyricularia oryzae; [1]) | inhibition of growth at 1 ppm (Pyricularia oryzae; [1]) | inhibition of growth at 1 ppm (Sclerotinia sclerotiorum; [3]) | inhibition of growth at 1 ppm (Botrytis cinerea; 1 ppm) | inhibition of growth at 0.25 ppm (Septoria tritici) | further results |
| --- | --- | --- | --- | --- | --- | --- | --- | --- | --- | --- | --- | --- | --- |
| CC(C)O/N=C(/CNC(=O)c1cn(C)nc1C(F)F)c1ncc(C#CC2CC2)cc1Cl [Pyrapropyon, pyrapropoyne] | 42% | 1% | 55% | 35% | 71% | – | – | – | – | – | – | – | inhibition of growth at 16 ppm (Pyricularia oryzae; [1]): 4% |
| Cc1cc(C2=NC(C)(C)C(F)(F)c3ccccc32)cnc1C [Compound 1-1] | 9% | 53% | 10% | 16% | 19% | 18% | 37% | 23% | 24% | 7% | 13% | – | inhibition of growth at 0.25 ppm (Sclerotinia sclerotiorum; Sclerotinia sclerotiorum, 168 h, 0.25 ppm, read-out: Observed efficacy): 7%; inhibition of growth at 16 ppm (Sclerotinia sclerotiorum; Sclerotinia sclerotiorum, 168 h, 16 ppm, read-out: Observed efficacy): 32%; inhibition of growth at 0.25 ppm (Botrytis cinerea): 13% |
| Cc1ncc(C2=NC(C)(C)C(F)(F)c3ccccc32)cc1CF [Compound 1-3] | 9% | 52% | 8% | 9% | 19% | 13% | 34% | – | 26% | 3% | 6% | 13% | inhibition of growth at 0.063 ppm (Septoria tritici): 11%; inhibition of growth at 0.025 ppm (Pyricularia oryzae; [1]): 20% |
| CC1(C)N=C(c2cnc3ccccc3c2)c2ccccc2C1(F)F [Quinofumelin, quinofumelin] | – | – | – | – | – | – | – | – | – | – | – | – | Observed efficacy (Septoria tritici; 1 ppm): 41%; Observed efficacy (Pyricularia oryzae; single active compound, 1 ppm): 34%; Observed efficacy (Sclerotinia sclerotiorum; 4 ppm): 65%; Observed efficacy (Botrytis cinerea; 1 ppm): 30% |
| Cc1cc(C2=NC(C)(C)C(F)(F)c3ccccc32)cnc1C(F)F [Compound 1-2] | 6% | – | 16% | 19% | 31% | 29% | – | 20% | 32% | – | 15% | 12% | inhibition of growth at 0.063 ppm (Pyricularia oryzae; [1]): 14% |
| Cc1cc(C)nc(Nc2ccccc2)n1 [Pyrimethanil, pyrimethanil] | 6% | – | 21% | 72% | – | – | 21% | – | – | 15% | 50% | – | – |
| N#Cc1sc2c(=O)c3ccccc3c(=O)c=2sc1C#N [Dithianon, dithianon] | – | – | – | – | – | – | – | 36% | – | 36% | – | 82% | inhibition of growth at 0.063 ppm (Septoria tritici): 22%; inhibition of growth at 0.063 ppm (Pyricularia oryzae; [1]): 14%; inhibition of growth at 0.25 ppm (Botrytis cinerea): 4% |
